Values after ≈ are worked out from the molar mass of the structure shown. “Also recorded” adds a separate entry of the source. Like-named read-outs stand apart in the source and are kept apart here.
How the values were obtained:
[1] = Neutral red uptake cytotoxicity assay; type: cell-based; settings: human, uninfected human foreskin fibroblast (HFF) cells
Method: Two days prior to use, human foreskin fibroblast (HiFF) cells were plated into six well plates and incubated at 37° C. with 5% CO2 and 90% humidity. On the date of assay, the drug was made upon MEM with 2% FBS then serially diluted 1:5 in MEM using six concentrations of drug. The initial starting concentration was 100/μg/ml down to 0.03 μg/ml. The virus used for infection was diluted in MEM containing 10% FBS to a desired concentration which gave 20-30 plaques per well. The media was aspirated from the wells and 0.2 ml of virus was added to each well in triplicate with 0.2 ml of media being added to drug toxicity wells. The plates were then incubated for one hour with shaking every fifteen minutes. After incubation, MEM containing the various drug concentrations was added to appropriate wells in a volume of 2.0 ml. Additional media was added again on day five and the cultures incubated for a total of 10 days. At the end of the incubation, the liquid was then aspirated off, stained with 6% neutral red solution for six hours, washed and plaques enumerated using a stereomicroscope. […]

Ellen strain of VZV = assay: Plaque reduction assay for Varicella-Zoster virus in HFF cells; type: cell-based; settings: 10 days
Method: Two days prior to use, human foreskin fibroblast (HiFF) cells were plated into six well plates and incubated at 37° C. with 5% CO2 and 90% humidity. On the date of assay, the drug was made upon MEM with 2% FBS then serially diluted 1:5 in MEM using six concentrations of drug. The initial starting concentration was 100/μg/ml down to 0.03 μg/ml. The virus used for infection was diluted in MEM containing 10% FBS to a desired concentration which gave 20-30 plaques per well. The media was aspirated from the wells and 0.2 ml of virus was added to each well in triplicate with 0.2 ml of media being added to drug toxicity wells. The plates were then incubated for one hour with shaking every fifteen minutes. After incubation, MEM containing the various drug concentrations was added to appropriate wells in a volume of 2.0 ml. Additional media was added again on day five and the cultures incubated for a total of 10 days. At the end of the incubation, the liquid was then aspirated off, stained with 6% neutral red solution for six hours, washed and plaques enumerated using a stereomicroscope. The results are compared with untreated control wells, and EC50 and CC50 values calculated.

EBV [2] = assay: Anti-EBV slot blot assay of EBV DNA in H1 cells; type: cell-based, Epstein-Barr virus
Method: A high yield of BBV producing cell line H1 derived from human P3HR1 cells was used in this study. Cells were cultured in RPMIf medium supplemented with 10% dialyzed fetal bovine serum and 100 μg/ml Kanamycin and were grown at 37° C. in a humidified incubator containing 5% CO2.
H1 cells were maintained in logarithmic phase of growth for two days prior to the initiation of treatment. The H1 cells were seeded in 24 well plates at the density of 2×10^5 cells per well in 2 ml of fresh medium with or without drug treatment and were incubated at 37° C. for 5 days. Following the period of drug treatment the cells were pelleted and used to determine the inhibitory effect of drug on EBV DNA by slot blot assay.
Autoradiographfic results were anlayzed by densitometry. […] See, for example, Yao, et al., Antimic. Agzents and Chemo., July, 1993, p.

mitochondrial DNA = assay: mt DNA content (toxicity to mitochondria, slot blot rehybridization); type: cell-based, human
Excerpt: Autoradiographfic results were anlayzed by densitometry. […] See, for example, Yao, et al., Antimic.

cell growth = assay: Cytotoxicity (cell growth)
[3] = Stability at different pH's (HPLC); settings: for stability (in words): pH 2
Method: In order to explore the possibility of using L-I-OddU and L-Br-OddU orally for the treatment of EBV-associated diseases, its stability at different pH levels is important. L-I-OddU was exposed to different pH solutions as indicated for 3 hr at 37°. The percentage of compound remaining as L-I-OddU was examined using HPLC with a C18 column.

[4] = Pharmacokinetics in BDF1 mice; settings: 50 mg/kg po versus ip/iv, preliminary
Method: At the times indicated in FIG. 5, blood was drawn into a heparinized capillary from the retro orbital plexus of female BDF1 mice. The plasma was separated from the formed elements by centrifugation. Then 100 μl of plasma was mixed with an equal volume of 30% trichloracetic acid and kept on ice for 10 minutes. […] The aqueous phase was moved to a clean tube and extracted again with the trioctylamine:freon mixture. Then 50 μl of the neutralized aqueous phase was injected onto a Perkin Elmer HPLC system. The samples were eluted from an Altech C18 column with an isocratic solvent system of water at 2 ml per min. The concentrations of the unknown samples were determined by comparison with standards of known concentrations.

[5] = tested on: lactate accumulation in the medium; assay: Lactate accumulation in medium of drug treated cultures
EBV [6] = settings: reported in Chu et al. PCT application; cited from earlier work
HBV = HBV assay; type: cell-based
Excerpt: (§1) Plaque reduction assays used for HSV-1, HSV-2 and CMV have been previously described. See, Gao, et al., Antimic. Agents and Chemo., May, 1990, p. 808-812 (HSV-Plaque); Cheng, et al., Proc. Natl. Acad. Sci. USA, vol. 80, 2767-2770 (May 1983) (CMV plaque reduction assay). The methods for testing against EBV, HBV, and HIV were also used as described previously. See, Yao, et al., Antimic. Agents and Chemo., July, 1993, p.

HSV-2 = assay: Plaque reduction assay HSV-2; type: cell-based; settings: Human alphaherpesvirus 2; HSV-2, plaque reduction
Excerpt: as §1

CMV = assay: Plaque reduction assay CMV; type: cell-based; settings: Human betaherpesvirus 5
Excerpt: as §1

HSV-1 = assay: Plaque reduction assay HSV-1; type: cell-based; settings: Human alphaherpesvirus 1; HSV-1, plaque reduction
Excerpt: as §1

HIV = HIV assay; type: cell-based; settings: Human immunodeficiency virus 1
Excerpt: as §1

[7] = Human alphaherpesvirus 3, 240 h, read-out: EC50
[8] = H1 cells, 5 days, EC50 of Table 2
[9] = human gammaherpesvirus 4, 120 h, H1 cells, 5 days, EC50 of Table 2, read-out: Anti-EBV EC50
[10] = H1 cells, 5 days, EC50 of Table 2, read-out: Anti-EBV EC50
[11] = read-out: Cytotoxicity IC50, cell growth

SMILES: Nc1nc2c(ncn2COCCO)c(=O)[nH]1 [ACV (acycloguanine), acyclovir, reference compound]
- CC50 at 10 days [1]: > 100 µg/mL
- EC50 (Ellen strain of VZV; [7]): 0.6 µg/mL (≈ 2.66 µM)

SMILES: O=c1[nH]c(=O)n(C2COC(CO)O2)cc1Br [D-Br-OddU, reference compound]
- Anti-EBV EC50 (EBV [2]; [8]): Inactive

SMILES: O=c1[nH]c(=O)n(C2COC(CO)O2)cc1I [D-I-OddU, reference compound]
- Anti-EBV EC50 (EBV [2]; [8]): Inactive

SMILES: Nc1nc(O)c2ncn(COC(CO)CO)c2n1 [DHPG, gancyclovir, reference compound]
- mt DNA Content ID50 (mitochondrial DNA): Inactive
- EC50 (EBV [2]; [9]): 5 µM
- IC50 (cell growth; human, H1 cells): 75 µM

SMILES: O=c1[nH]c(=O)n([C@@H]2CO[C@H](CO)O2)cc1Br [L-Br-OddU]
- % Remaining ([3]; pH1, 3 hr at 37°): 105%
- stability (in words) [3]: stable
- mt DNA Content ID50 (mitochondrial DNA): Inactive
- anti-EBV activity (in words) (EBV [2]): most potent
- EC50 (EBV [2]; [10]): 0.2 µM
- EC50 (EBV [2]; H1 cells, 5 days, second EC50 column of Table 2, read-out: Anti-EBV EC50): 2 µM
- EC50 (Ellen strain of VZV): 0.8 µg/mL (≈ 2.73 µM)
- efficiency of oral uptake [4]: about 60%
- IC50 (cell growth; [11]): > 100 µM
- induction of lactate accumulation in the medium [5]: lack of induction

SMILES: O=c1[nH]c(=O)n([C@@H]2CO[C@H](CO)O2)cc1C(F)(F)F [L-CF3-OddU, (2S,4S)-1-[2-(Etydroxymethyl)-1,3-dioxolan-4-yl]-5-trifluoromethyluracil]
- mt DNA Content ID50 (mitochondrial DNA): Inactive
- EC50 (EBV [2]; [10]): 3 µM
- IC50 (cell growth; [11]): > 100 µM

SMILES: O=c1[nH]c(=O)n([C@@H]2CO[C@H](CO)O2)cc1Cl [L-CI-OddU, (2S,4S)-1-[2-(Hydroxymethyl)-1,3-dioxolan-4-yl]-5-chlorouracil]
- mt DNA Content ID50 (mitochondrial DNA): Inactive
- CC50 at 10 days [1]: > 100 µg/mL
- EC50 (EBV [2]; [9]): 3 µM
- EC50 (Ellen strain of VZV; [7]): 27.9 µg/mL (≈ 112 µM)
- IC50 (cell growth; human, H1 cells): > 100 µM

SMILES: O=c1[nH]c(=O)n([C@@H]2CO[C@H](CO)O2)cc1F [L-F-OddU, (2S,4S)-1-[2-(Hydroxymethyl)-1,3-dioxolan-4-yl]-5 fluorouracil]
- mt DNA Content ID50 (mitochondrial DNA): Inactive
- EC50 (EBV [2]; [9]): 50 µM
- IC50 (cell growth; human, H1 cells): > 100 µM

SMILES: Cc1cn([C@H]2O[C@@H](CO)[C@H](O)[C@H]2F)c(=O)[nH]c1=O [L-FMAU, 2′-fluoro-5-methyl-β-L-arabinofuranosyluridine, reference compound]
- activity against EBV (PCT/US95/01253) (EBV [6]): good activity
- anti-EBV activity (in words) (EBV [2]): active
- activity against HBV (in words) (HBV): active

SMILES: O=c1[nH]c(=O)n([C@@H]2CO[C@H](CO)O2)cc1I [L-I-OddU, (2S,4S)-1-[2-(Hydroxymethyl)-1,3-dioxolan-4-yl]-5-iodouracil]
- % Remaining ([3]; pH1, 3 hr at 37°): 102%
- stability (in words) [3]: stable
- % Remaining ([3]; pH2, 3 hr at 37°): 102%
- % Remaining ([3]; pH5, 3 hr at 37°): 102%
- % Remaining ([3]; pH7, 3 hr at 37°): 99%
- % Remaining ([3]; pH9, 3 hr at 37°): 100%
- mt DNA Content ID50 (mitochondrial DNA): Inactive
- CC50 at 10 days [1]: > 100 µg/mL
- EC50 (HSV-2): > 50 µM
- anti-EBV activity (in words) (EBV [2]): most potent; also recorded: slightly more potent than L-Br-OddU
- EC50 against EBV relative to L-FMAU (EBV [2]; comparison with L-FMAU): at least four times lower than L-FMAU
- EC50 (EBV [2]; [9]): 0.1 µM
- EC50 (EBV [2]; human gammaherpesvirus 4, 120 h, H1 cells, 5 days, second EC50 column of Table 2, read-out: Anti-EBV EC50): 0.4 µM
- EC50 (EBV [2]; human gammaherpesvirus 4, EBV, Table 3, read-out: EC50): 0.1 µM
- EC50 (CMV): > 10 µM
- EC50 (Ellen strain of VZV; [7]): 4.2 µg/mL (≈ 12.4 µM)
- EC50 (HSV-1): 50 µM
- IC50 (cell growth; human, H1 cells): > 100 µM
- activity against HBV (in words) (HBV): little activity
- EC50 (HBV; Hepatitis B virus, HBV): > 10 µM
- induction of lactate accumulation in the medium [5]: lack of induction
- EC50 (HIV): > 100 µM

SMILES: O=c1ccn([C@@H]2CO[C@H](CO)O2)c(=O)[nH]1 [L-OddU, (2S,4S)-1-[2-(Hydroxymethyl)-1,3-dioxolan-4-yl]uracil]
- mt DNA Content ID50 (mitochondrial DNA): Inactive
- EC50 (EBV [2]; [9]): > 50 µM
- IC50 (cell growth; human, H1 cells): > 100 µM

SMILES: Nc1ccn([C@H]2CC[C@@H](CO)O2)c(=O)n1 [ddC, reference compound]
- IC50 (mitochondrial DNA; read-out: mt DNA Content ID50): 0.02 µM
- Anti-EBV EC50 (EBV [2]; [8]): Inactive
- IC50 (cell growth; [11]): 20 µM

Reference: patent US20010018440A1, “L-beta-dioxolane uridine analogs and methods for treating and preventing virus infections” (Yale University and The University of Georgia Research …, priority 1996, published 2001)
